The results in this text go back to US20180037595A1, “BENZOXABOROLE COMPOUNDS AND USES THEREOF” (GLAXOSMITHKLINE INTELLECTUAL PROPERTY (NO.2) LIMITED, priority 2015, published 2018).

The subject of this assay is M. tuberculosis clinical isolates. Briefly: MIC against clinical strains (BACTEC MGIT 960 System). In kind it is cell-based. The following applies: Mycobacterium tuberculosis.

A word on the MIC: it is the least concentration at which growth counts as inhibited. Low readings indicate a more susceptible organism, high ones a less susceptible organism. In the case of `Cl.NC[C@H]1OB2OCCOc3ccc(Cl)c1c32` [Example 4, (S)-(3-chloro-7,8-dihydro-2H-1,6,9-trioxa-9a-borabenzo[cd]azulen-2-yl)methanamine hydrochloride], under “strain 330, resistant clinical isolate, resistance HSR (Tables 2B, 2D)”, the MIC came out at 0.08 µM.
With `NC[C@H]1OB2OCCOc3ccc(Cl)c1c32` [Example G4-CI], for the setting “against 85 of the 96 clinical isolate strains tested (sensitive and resistant)”, the MIC was less than 0.1 µM.
